Converted amounts (≈) assume the structure as drawn.
Experiments:
[1] = Log D of silymarin components (octanol/buffer, HPLC); type: physicochemical; settings: pH 7.4
Procedure: (§1) Silymarin components including taxifolin, silydianin, silychristin, silybin A, silybin B, isosilybin A, and isosilybin B were tested for their solubility in water and also for their Log D value. The silymarin extract was obtained from Indena® (Indena Code: 9065110). The HPLC system consisted of Waters system equipped with performance PLUS inline degasser along dual λ absorbance detector set at 288 nm. The chromatographic separation of silymarin constituents was achieved on a Symmetry Shield RP18 column (150×4.6 mm, 5 μm); which was maintained at ambient room temperature conditions. The binary mobile phase system consisted of reservoir A (methanol: 10 mM ammonium acetate pH 5 [65:35 v/v]) and reservoir B (10 mM ammonium acetate, pH 5) were run as per gradient program (0-1.9 min: 25% A and 75% B; 2.0-14.9 min: 80% A and 20% B and 15-37.9 min: 80% A and 20% B and 38-40 min: 25% A and 75% B). The flow rate was 1 mL/min throughout the analytical run.
To determine the Log D of silymarin components, the silymarin extract (2 mg) was dissolved in 100% DMSO and then used for the experiment. Different buffers between pH ranges of 1.0 to 12 were prepared by using universal buffer stock containing 25 mM hydrochloric acid, 25 mM citric acid, 25 mM phosphoric acid, 30 mM boric acid and 20 mM sodium chloride. About 45 mL of universal buffer was titrated with Sodium hydroxide (5M) to obtain desired pH. A 10 μL of silymarin stock solution was spiked into Eppendorf tube containing 500 μL each of a buffer and presaturated octanol. This mixture was vortexed for 5 minutes and kept for shaking at room temperature. After 16 h, the mixture was centrifuged at 10,000 RPM for 30 minutes. After centrifugation buffer and octanol phases were separated, both phases were diluted with acetonitrile (1:1) and subject to HPLC analysis for quantitation of individual components of silymarin. The Log D values of each compound at a pH was determined by Log D (pH)=Log [Organic (peak area)/Aqueous (peak area)].

[2] = Silymarin solubility in water, CAPTISOL® solution and γ-cyclodextrin solution (Example 2, HPLC); type: physicochemical; settings: water, thermodynamic from solid, Solubility (mg/ml) of components of silymarin
Procedure: The solutions were centrifuged for 10 min at 13K rpm. An aliquot of the supernatant was diluted 1:5 for Water, 1:25 for γ-Cyclodextrin and 1:100 for both 0.20 M CAPTISOL® and 0.20M HP-B-Cyclodextrin using MeOH as the diluent. The standard reference was prepared by dissolving silymarin in 10 mg/mL of DMSO and then diluted to 0.50 mg/mL using MeOH.
The change of the saturated solubility of the various components of silymarin in each of the four types of samples can be seen in FIG. 4.
The data shown in Table 6 is plotted in FIGS. 5 and 6. The change of the solubility of the various components of silymarin in each of the three samples can be seen in FIG. 5. The total mutual saturated solubility of all flavonolignan components can be seen in FIG. 6. […] The various components of silymarin also have increased solubility in the CAPTISOL® (0.2M) sample.

[3] = Solubility of silymarin components in water (Example 10, HPLC); type: physicochemical; settings: water
Procedure: as §1

[4] = Pharmacokinetic study in rat; type: in vivo; settings: in vivo; for Tmax: Tmax (h)
Procedure: The Silymarin-CAPTISOL® complex was administered to rat to test its pharmacokinetic properties.
On arrival rats were housed individually in cages at animal care facility in a temperature and humidity controlled room with a 12 h:12 h (light:dark) cycles. The rats were provided with free access to food and water for one week before using for experimental purpose. The 12 rats were equally divided into three groups—Group I: silymarin-CAPTISOL® complex with a CAPTISOL® concentration of 100 mM for oral administration; Group II: silymarin suspension (Control); and Group III: silymarin complex with a CAPTISOL® concentration of 100 mM for intravenous administration. The animals were fasted overnight with free access to water. On the day of experiment, the rat was removed from animal care facility and brought to the procedure lab. The animal was weighed and appropriate dosing volume was determined. For oral administration, rat's head was held in place by gently extending the head back and supporting the lower body. The gavage tube was placed in the mouth and advanced along the lower palate till the esophagus, and the silymarin was administered through the tube. For intravenous administration, the silymarin-CAPTISOL® complex was administered by slow bolus intravenous injection into the tail vein. Approximately 200 μL blood was drawn into heparin coated tubes at pre dose, 0.15, 0.5, 1, 2, 4, 8, 10 and 24 h for oral group II and for intravenous group III. The sampling time points were predose, 0.12, 0.25, 0.5, 1, 2, 4, 8 and 24 h through the jugular vein catheter. Plasma was harvested by centrifuging the blood at 4000 RPM for 5 min and stored frozen at −80±10° C. until analysis.
Stored plasma was thawed just before performing the silymarin components analysis. 200 μL of acetonitrile containing 0.1% of ammonia was added to 50 μL of plasma, and this mixture was vortexed for 5 min and centrifuged at 4° C. for 5 min at 10,000 RPM. After centrifugation, the supernatant was separated and injected into HPLC for analysis of silymarin constituents taxifolin, silydianin, silychristin, silybin A, silybin B, isosilybin A and isosilybin B.
The plasma concentration-time curves of silybin A, silybin B, isosilybin A, and isosilybin B in the Silymarin-CAPTISOL® sample of Group I and the control sample (silymarin suspension) are respectively shown in FIGS. 20A to 20D.

physchem = settings: 25 °C, water, thermodynamic from solid, Solubility (mg/ml) of flavonolignan components of silymarin
Procedure: CAPTISOL® was dissolved in water to form four solutions with a CAPTISOL® concentration of 0.05 mol/L, 0.1 mol/L, 0.2 mol/L, and 0.3 mol/L respectively. 12 mg of silymarin powder (Sigma Aldrich) was added to 1 mL of each of the four CAPTISOL® solutions on Day 1, another 12 mg Silymarin powder was added on Day 3, and 19-22 mg Silymarin powder was added on Day 7 to ensure that silymarin reached its maximum solubility in each solution. The solutions were stirred in a water bath at 25° C. The solutions were then centrifuged prior to sampling. The supernatant was diluted in MeOH in preparation for HPLC assay.
A reference standard was prepared by mixing silymarin with methanol to provide a methanol solution with a silymarin concentration of 0.1 mg/ml.
HPLC was used to measure the relative concentrations of the different components of silymarin in each sample solution following the method described in Kuki et al., (2012) Chromatogram 75:175-180. The relative concentration of each component of silymarin was measured by comparing the normalized peak area units with that of the standard reference measured by the UV data at 288 nm and assuming equivalent extinction coefficients for all components.
The relative molar amounts of the ten flavonolignan components of silymarin were calculated by dividing the normalized peak area of each component in a sample by the total normalized peak area of the sample.
The concentration of each flavonolignan component of silymarin was calculated from the peak areas in Tables 1a and 1b and the total concentration of silymarin (0.1 mg/ml) in the reference sample, assuming constant extinction coefficients for each component.

Structure (SMILES) | logD at 16 h [1] | solubility [2] [µg/mL] | solubility [3] [µg/mL] | AUC(0-t) ([4]; iv, AUC(0-2 h) (ng · h/mL)) [ng·h/mL] | Cmax ([4]; iv, Cmax (ng/mL)) [ng/mL] | Tmax ([4]; iv) [min] | % Fabs of silymarin-CAPTISOL® complex compared with silymarin alone ([4]; po) | AUC of Silymarin-CAPTISOL® complex compared with the control sample ([4]; po) | AUC(0-2 h) ([4]; po) [ng·h/mL] | Cmax of Silymarin-CAPTISOL® complex compared with the control sample ([4]; po) | Tmax ([4]; po) [min] | solubility (physchem) [µg/mL]
COc1cc([C@H]2Oc3ccc([C@H]4Oc5cc(O)cc(O)c5C(=O)[C@@H]4O)cc3O[C@@H]2CO)ccc1O [Isosilybin A] | 2.47 | 40 (≈ 82.9 µM) | 18.8 (≈ 39 µM) | 1970 | 4160 | 4.2 | higher % Fabs | higher AUC | 150 | higher Cmax | 30 | 40 (≈ 82.9 µM)
COc1cc([C@@H]2[C@H]3CO[C@@]4(O)C(=O)[C@@H]2C=C([C@H]2Oc5cc(O)cc(O)c5C(=O)[C@@H]2O)[C@@H]34)ccc1O [Silydianin] | 1.64 | 120 (≈ 249 µM) | 232 (≈ 481 µM) |  |  |  |  |  |  |  |  | 70 (≈ 145 µM)
